Experimental data: PubChem BioAssay AID190 (DTP/NCI, 2004)
Where “and” joins values, the source holds several entries; their conditions need not be identical. Identical values can stand only once. Toxic doses and inconclusive results are not listed. How the source made its calls: active means survival T/C of 150% or more; inactive means T/C below 125% in these data.

Tested on: AKR/Lw mice, AKR lymphoma ip, median survival T/C
Assay: NCI In Vivo Anticancer Drug Screen. Data for tumor model Lymphoma AKR (Transplanted) (intraperitoneal) in AKR/Lw mice
Details: endpoint: median survival time, higher = longer survival
Description: The antitumor activity of compounds was measured in mice bearing transplantable tumors. Survival or tumor size were measured and the results are expressed as the measurement made in the treated group (T) divided by the measurement made in the vehicle treated control group (C). The tumor model used in this assay is Lymphoma AKR (Transplanted) (intraperitoneal) in AKR/Lw mice

[1] = dose: 25.0 mg/kg/injection, schedule: Q01DX009 (ip), vehicle: Klucel (hydroxypropylcellulose) (HPC)
[2] = dose: 50.0 mg/kg/injection, schedule: Q01DX009 (ip), vehicle: Klucel (hydroxypropylcellulose) (HPC)
[3] = dose: 100.0 mg/kg/injection, schedule: Q01DX001 (ip), vehicle: saline
[4] = dose: 200.0 mg/kg/injection, schedule: Q01DX001 (ip), vehicle: saline
[5] = dose: 400.0 mg/kg/injection, schedule: Q01DX001 (ip), vehicle: saline

Measured: T/C

CC(=O)NNC(=O)c1ccccn1
inactive: dose: 3.1 mg/kg/injection, schedule: Q04DX003 (ip), vehicle: Klucel (hydroxypropylcellulose) (HPC) 92 % of control | dose: 6.2 mg/kg/injection, schedule: Q01DX009 (ip), vehicle: Klucel (hydroxypropylcellulose) (HPC) 100 % of control | dose: 6.2 mg/kg/injection, schedule: Q04DX003 (ip), vehicle: Klucel (hydroxypropylcellulose) (HPC) 88 % of control and 102 % of control | dose: 12.5 mg/kg/injection, schedule: Q01DX009 (ip), vehicle: Klucel (hydroxypropylcellulose) (HPC) 112 % of control and 120 % of control | dose: 12.5 mg/kg/injection, schedule: Q04DX003 (ip), vehicle: Klucel (hydroxypropylcellulose) (HPC) 89 % of control and 96 % of control | dose: 25.0 mg/kg/injection, schedule: Q01DX001 (ip), vehicle: saline 97 % of control and 108 % of control | [1] 109 % of control and 114 % of control | dose: 25.0 mg/kg/injection, schedule: Q01DX009 (ip), vehicle: saline 87 % of control and 91 % of control | dose: 25.0 mg/kg/injection, schedule: Q04DX003 (ip), vehicle: Klucel (hydroxypropylcellulose) (HPC) 97 % of control and 105 % of control and 112 % of control | dose: 31.25 mg/kg/injection, schedule: Q01DX001 (ip), vehicle: Klucel (hydroxypropylcellulose) (HPC) 94 % of control | dose: 37.5 mg/kg/injection, schedule: Q01DX009 (ip), vehicle: saline 98 % of control | dose: 50.0 mg/kg/injection, schedule: Q01DX001 (ip), vehicle: Klucel (hydroxypropylcellulose) (HPC) 92 % of control | dose: 50.0 mg/kg/injection, schedule: Q01DX001 (ip), vehicle: saline 95 % of control and 107 % of control | [2] 120 % of control | dose: 50.0 mg/kg/injection, schedule: Q01DX009 (ip), vehicle: saline 101 % of control and 104 % of control | dose: 50.0 mg/kg/injection, schedule: Q04DX003 (ip), vehicle: Klucel (hydroxypropylcellulose) (HPC) 104 % of control and 109 % of control and 110 % of control | dose: 62.5 mg/kg/injection, schedule: Q01DX001 (ip), vehicle: Klucel (hydroxypropylcellulose) (HPC) 94 % of control | dose: 75.0 mg/kg/injection, schedule: Q01DX009 (ip), vehicle: saline 96 % of control | dose: 100.0 mg/kg/injection, schedule: Q01DX001 (ip), vehicle: Klucel (hydroxypropylcellulose) (HPC) 114 % of control | [3] 102 % of control and 115 % of control and 116 % of control | dose: 100.0 mg/kg/injection, schedule: Q01DX009 (ip), vehicle: Klucel (hydroxypropylcellulose) (HPC) 123 % of control | dose: 100.0 mg/kg/injection, schedule: Q01DX009 (ip), vehicle: saline 107 % of control | dose: 100.0 mg/kg/injection, schedule: Q04DX003 (ip), vehicle: other 117 % of control and 123 % of control | dose: 100.0 mg/kg/injection, schedule: Q04DX003 (ip), vehicle: saline 116 % of control | dose: 150.0 mg/kg/injection, schedule: Q01DX001 (ip), vehicle: Klucel (hydroxypropylcellulose) (HPC) 94 % of control | dose: 150.0 mg/kg/injection, schedule: Q01DX009 (ip), vehicle: saline 105 % of control | dose: 200.0 mg/kg/injection, schedule: Q01DX001 (ip), vehicle: Klucel (hydroxypropylcellulose) (HPC) 95 % of control | [4] 97 % of control and 107 % of control | dose: 200.0 mg/kg/injection, schedule: Q04DX003 (ip), vehicle: Klucel (hydroxypropylcellulose) (HPC) 87 % of control and 94 % of control | dose: 200.0 mg/kg/injection, schedule: Q04DX003 (ip), vehicle: other 107 % of control | dose: 200.0 mg/kg/injection, schedule: Q04DX003 (ip), vehicle: saline 116 % of control | dose: 250.0 mg/kg/injection, schedule: Q01DX001 (ip), vehicle: Klucel (hydroxypropylcellulose) (HPC) 107 % of control | dose: 400.0 mg/kg/injection, schedule: Q01DX001 (ip), vehicle: Klucel (hydroxypropylcellulose) (HPC) 100 % of control

Nc1ncn(C2OC(CO)C(O)C2O)c(=O)n1 (configuration not stated)
active: dose: 0.5 mg/kg/injection, schedule: Q04DX008 (ip), vehicle: saline 180 % of control | dose: 0.75 mg/kg/injection, schedule: Q01DX009 (ip), vehicle: water 240 % of control | dose: 1.0 mg/kg/injection, schedule: Q04DX004 (ip), vehicle: saline 152 % of control | dose: 1.0 mg/kg/injection, schedule: Q04DX008 (ip), vehicle: saline 155 % of control | dose: 1.5 mg/kg/injection, schedule: Q01DX009 (ip), vehicle: water 153 % of control | dose: 2.0 mg/kg/injection, schedule: Q04DX004 (ip), vehicle: saline 185 % of control | dose: 2.0 mg/kg/injection, schedule: Q04DX008 (ip), vehicle: saline 159 % of control | dose: 3.0 mg/kg/injection, schedule: Q01DX009 (ip), vehicle: water 265 % of control | dose: 3.0 mg/kg/injection, schedule: Q04DX004 (ip), vehicle: saline 150 % of control and 252 % of control | dose: 3.0 mg/kg/injection, schedule: Q04DX008 (ip), vehicle: saline 150 % of control | dose: 4.4 mg/kg/injection, schedule: Q04DX004 (ip), vehicle: saline 163 % of control and 223 % of control | dose: 4.4 mg/kg/injection, schedule: Q04DX008 (ip), vehicle: saline 166 % of control and 180 % of control | dose: 10.0 mg/kg/injection, schedule: Q04DX004 (ip), vehicle: saline 163 % of control | dose: 10.0 mg/kg/injection, schedule: Q04DX008 (ip), vehicle: saline 152 % of control and 169 % of control | dose: 12.0 mg/kg/injection, schedule: Q01DX001 (ip), vehicle: saline with Tween-80 162 % of control | dose: 12.0 mg/kg/injection, schedule: Q04DX003 (ip), vehicle: water 166 % of control | dose: 24.0 mg/kg/injection, schedule: Q01DX001 (ip), vehicle: saline with Tween-80 178 % of control | dose: 30.0 mg/kg/injection, schedule: Q01DX001 (ip), vehicle: saline 164 % of control | dose: 48.0 mg/kg/injection, schedule: Q01DX001 (ip), vehicle: saline with Tween-80 206 % of control | dose: 96.0 mg/kg/injection, schedule: Q01DX001 (ip), vehicle: saline with Tween-80 375 % of control | dose: 30.0 micrograms/kg/injection, schedule: Q01DX009 (ip), vehicle: saline 165 % of control | dose: 60.0 micrograms/kg/injection, schedule: Q01DX009 (ip), vehicle: saline 150 % of control
inactive: dose: 0.06 mg/kg/injection, schedule: Q04DX008 (ip), vehicle: saline 116 % of control | dose: 0.12 mg/kg/injection, schedule: Q04DX004 (ip), vehicle: saline 109 % of control | dose: 0.25 mg/kg/injection, schedule: Q04DX004 (ip), vehicle: saline 118 % of control | dose: 0.38 mg/kg/injection, schedule: Q04DX003 (ip), vehicle: saline 88 % of control | dose: 1.5 mg/kg/injection, schedule: Q01DX009 (ip), vehicle: saline 92 % of control | dose: 2.5 mg/kg/injection, schedule: Q01DX001 (ip), vehicle: saline 95 % of control and 114 % of control | dose: 2.5 mg/kg/injection, schedule: Q04DX003 (ip), vehicle: saline 122 % of control | dose: 5.0 mg/kg/injection, schedule: Q04DX003 (ip), vehicle: saline 124 % of control | dose: 6.0 mg/kg/injection, schedule: Q01DX001 (ip), vehicle: saline 92 % of control and 121 % of control | dose: 6.0 mg/kg/injection, schedule: Q01DX009 (ip), vehicle: water 96 % of control | dose: 6.25 mg/kg/injection, schedule: Q01DX001 (ip), vehicle: saline 90 % of control | dose: 10.0 mg/kg/injection, schedule: Q04DX003 (ip), vehicle: saline 124 % of control | dose: 12.0 mg/kg/injection, schedule: Q01DX001 (ip), vehicle: saline 92 % of control and 121 % of control | dose: 12.5 mg/kg/injection, schedule: Q01DX001 (ip), vehicle: saline 105 % of control and 112 % of control | dose: 40.0 mg/kg/injection, schedule: Q01DX001 (ip), vehicle: saline 103 % of control | dose: 80.0 mg/kg/injection, schedule: Q01DX001 (ip), vehicle: saline 119 % of control | dose: 15.0 micrograms/kg/injection, schedule: Q01DX009 (ip), vehicle: saline 113 % of control

c1ccc2c(c1)OCCOCCOc1ccccc1OCCOCCO2
inactive: [3] 107 % of control | [4] 123 % of control | [5] 103 % of control

COc1ccc(C2c3cc4c(c(OC)c3CC3OCC(=O)C32)OCO4)cc1OC (configuration not stated)
inactive: [1] 110 % of control | [2] 103 % of control

COC(=O)C(COS(=O)(=O)c1ccccc1)NC(=O)OCc1ccccc1 (configuration not stated)
inactive: [3] 94 % of control | [4] 97 % of control | [5] 102 % of control

COc1cc([C@@H]2c3cc4c(c(O)c3C[C@H]3COC(=O)[C@@H]32)OCO4)cc(OC)c1O
inactive: dose: 0.12 mg/kg/injection, schedule: Q01DX009 (ip), vehicle: Klucel (hydroxypropylcellulose) (HPC) 105 % of control | dose: 0.25 mg/kg/injection, schedule: Q01DX009 (ip), vehicle: Klucel (hydroxypropylcellulose) (HPC) 97 % of control
